From ChEMBL document CHEMBL4270599, “Synthesis of a 3'-C-ethynyl-β-d-ribofuranose purine nucleoside library: Discovery of C7-deazapurine analogs as potent antiproliferative nucleosides” (Eur J Med Chem, 2018)

Columns and labels:
Format in all cases: functional
SK-OV-3 = assay: Growth inhibition of human SKOV3 cells assessed as cell growth at 10^-4 M incubated for 48 hrs by sulforhodamine B assay relative to control; conditions: SK-OV-3, 48 h, read-out: Activity
HCT-15 [1] = assay: Growth inhibition of human HCT15 cells assessed as cell growth at 10^-4 M incubated for 48 hrs by sulforhodamine B assay relative to control; conditions: HCT-15, 48 h, read-out: Activity
Hs-578T [2] = assay: Growth inhibition of human Hs 578T cells assessed as cell growth at 10^-7 M incubated for 48 hrs by sulforhodamine B assay relative to control; conditions: read-out: Activity
SF-268 = assay: Growth inhibition of human SF268 cells assessed as cell growth at 10^-5 M incubated for 48 hrs by sulforhodamine B assay relative to control; conditions: SF-268, 48 h, read-out: Activity
PC-3 = assay: Cytotoxicity against human PC3 cells after 48 hrs by SRB assay; conditions: PC-3, 48 h; for GI50: read-out: pGI50 (converted)
HCT-15 [3] = assay: Growth inhibition of human HCT15 cells assessed as cell growth at 10^-6 M incubated for 48 hrs by sulforhodamine B assay relative to control; conditions: HCT-15, 48 h, read-out: Activity
NCI-H23 = assay: Growth inhibition of human NCI-H23 cells assessed as cell growth at 10^-6 M incubated for 48 hrs by sulforhodamine B assay relative to control; conditions: NCI-H23, 48 h, read-out: Activity
SF-295 = assay: Growth inhibition of human SF295 cells assessed as cell growth at 10^-6 M incubated for 48 hrs by sulforhodamine B assay relative to control; conditions: SF-295, 48 h, read-out: Activity
OVCAR-8 = assay: Growth inhibition of human OVCAR8 cells assessed as cell growth at 10^-7 M incubated for 48 hrs by sulforhodamine B assay relative to control; conditions: OVCAR-8, 48 h, read-out: Activity
HCT-15 [4] = assay: Cytotoxicity against human HCT15 cells after 48 hrs by SRB assay; conditions: HCT-15, 48 h; for GI50: read-out: pGI50 (converted); for CC50: read-out: pLC50 (the source's name) (converted)
ACHN = assay: Growth inhibition of human ACHN cells assessed as cell growth at 10^-4 M incubated for 48 hrs by sulforhodamine B assay relative to control; conditions: read-out: Activity
HCT-15 [5] = assay: Growth inhibition of human HCT15 cells assessed as cell growth at 10^-7 M incubated for 48 hrs by sulforhodamine B assay relative to control; conditions: HCT-15, 48 h, read-out: Activity
OVCAR-4 = assay: Growth inhibition of human OVCAR4 cells assessed as cell growth at 10^-7 M incubated for 48 hrs by sulforhodamine B assay relative to control; conditions: OVCAR-4, 48 h, read-out: Activity
U-251 = assay: Growth inhibition of human U251 cells assessed as cell growth at 10^-4 M incubated for 48 hrs by sulforhodamine B assay relative to control; conditions: U-251, 48 h, read-out: Activity
HOP-62 = assay: Growth inhibition of human HOP62 cells assessed as cell growth at 10^-6 M incubated for 48 hrs by sulforhodamine B assay relative to control; conditions: HOP-62, 48 h, read-out: Activity
BT-549 [6] = assay: Growth inhibition of human BT549 cells assessed as cell growth at 10^-6 M incubated for 48 hrs by sulforhodamine B assay relative to control; conditions: BT-549, 48 h, read-out: Activity
BT-549 [7] = assay: Growth inhibition of human BT549 cells assessed as cell growth at 10^-5 M incubated for 48 hrs by sulforhodamine B assay relative to control; conditions: BT-549, 48 h, read-out: Activity
UACC-62 = assay: Growth inhibition of human UACC62 cells assessed as cell growth at 10^-8 M incubated for 48 hrs by sulforhodamine B assay relative to control; conditions: UACC-62, 48 h, read-out: Activity
UACC-257 [8] = assay: Growth inhibition of human UACC257 cells assessed as cell growth at 10^-5 M incubated for 48 hrs by sulforhodamine B assay relative to control; conditions: UACC-257, 48 h, read-out: Activity
UACC-257 [9] = assay: Growth inhibition of human UACC257 cells assessed as cell growth at 10^-7 M incubated for 48 hrs by sulforhodamine B assay relative to control; conditions: UACC-257, 48 h, read-out: Activity
Hs-578T [10] = assay: Cytotoxicity against human Hs 578T cells after 48 hrs by SRB assay; conditions: for GI50: read-out: pGI50 (converted)
K562 = assay: Growth inhibition of human K562 cells assessed as cell growth at 10^-6 M incubated for 48 hrs by sulforhodamine B assay relative to control; conditions: K562, 48 h, read-out: Activity
HCT-15 [11] = assay: Growth inhibition of human HCT15 cells assessed as cell growth at 10^-5 M incubated for 48 hrs by sulforhodamine B assay relative to control; conditions: HCT-15, 48 h, read-out: Activity
KM12 = assay: Growth inhibition of human KM12 cells assessed as cell growth at 10^-4 M incubated for 48 hrs by sulforhodamine B assay relative to control; conditions: KM12, 48 h, read-out: Activity
786-0 = assay: Growth inhibition of human 786-0 cells assessed as cell growth at 10^-6 M incubated for 48 hrs by sulforhodamine B assay relative to control; conditions: 786-0, 48 h, read-out: Activity
RXF 393 = assay: Growth inhibition of human RXF393 cells assessed as cell growth at 10^-7 M incubated for 48 hrs by sulforhodamine B assay relative to control; conditions: RXF 393, 48 h, read-out: Activity
BT-549 [12] = assay: Growth inhibition of human BT549 cells assessed as cell growth at 10^-7 M incubated for 48 hrs by sulforhodamine B assay relative to control; conditions: BT-549, 48 h, read-out: Activity
SNB-19 = assay: Growth inhibition of human SNB19 cells assessed as cell growth at 10^-7 M incubated for 48 hrs by sulforhodamine B assay relative to control; conditions: SNB-19, 48 h, read-out: Activity
TK-10 = assay: Growth inhibition of human TK10 cells assessed as cell growth at 10^-8 M incubated for 48 hrs by sulforhodamine B assay relative to control; conditions: TK-10, 48 h, read-out: Activity
HT-29 = assay: Growth inhibition of human HT-29 cells assessed as cell growth at 10^-8 M incubated for 48 hrs by sulforhodamine B assay relative to control; conditions: HT-29, 48 h, read-out: Activity
SK-MEL-2 = assay: Growth inhibition of human SK-MEL-2 cells assessed as cell growth at 10^-6 M incubated for 48 hrs by sulforhodamine B assay relative to control; conditions: SK-MEL-2, 48 h, read-out: Activity
CCRF-CEM = assay: Cytotoxicity against human CCRF-CEM cells after 48 hrs by SRB assay; conditions: for GI50: read-out: pGI50 (converted)
MDA-MB-231 = assay: Growth inhibition of human MDA-MB-231 cells assessed as cell growth at 10^-8 M incubated for 48 hrs by sulforhodamine B assay relative to control; conditions: MDA-MB-231, 48 h, read-out: Activity
[13] = read-out: pLC50 (the source's name) (converted)
[14] = read-out: LC50 (the source's name)

C#C[C@@]1(O)[C@@H](CO)O[C@@H](n2ccc3c(N)ncnc32)[C@@H]1O
growth at 100 µM (SK-OV-3): -11%
growth at 100 µM (HCT-15 [1]): -32%
growth at 0.1 µM (Hs-578T [2]): 100%
growth at 10 µM (SF-268): 5%
TGI (PC-3; read-out: TGI): 3.54 µM
GI50 (PC-3): 0.813 µM
CC50 (PC-3; [13]): 33.1 µM
TGI (PC-3; read-out: pTGI (converted)): 3.55 µM
growth at 1 µM (HCT-15 [3]): 48%
growth at 1 µM (NCI-H23): 57%
growth at 1 µM (SF-295): 74%
growth at 0.1 µM (OVCAR-8): 106%
TGI (HCT-15 [4]; read-out: TGI): 4.62 µM
GI50 (HCT-15 [4]): 0.891 µM
CC50 (HCT-15 [4]): > 100 µM
TGI (HCT-15 [4]; read-out: pTGI (converted)): 4.57 µM
growth at 100 µM (ACHN): -24%
growth at 0.1 µM (HCT-15 [5]): 93%
growth at 0.1 µM (OVCAR-4): 97%
growth at 100 µM (U-251): -30%
growth at 1 µM (HOP-62): 77%
growth at 1 µM (BT-549 [6]): 80%
growth at 10 µM (BT-549 [7]): -63%
growth at 0.01 µM (UACC-62): 97%
growth at 10 µM (UACC-257 [8]): -16%
growth at 0.1 µM (UACC-257 [9]): 105%
TGI (Hs-578T [10]; read-out: TGI): > 100 µM
GI50 (Hs-578T [10]): 4.68 µM
CC50 (Hs-578T [10]; [13]): > 100 µM
TGI (Hs-578T [10]; read-out: pTGI): > 100 µM
growth at 1 µM (K562): 46%
growth at 10 µM (HCT-15 [11]): -24%
growth at 100 µM (KM12): -52%
growth at 1 µM (786-0): 68%
growth at 0.1 µM (RXF 393): 111%
growth at 0.1 µM (BT-549 [12]): 102%
growth at 0.1 µM (SNB-19): 98%
growth at 0.01 µM (TK-10): 101%
growth at 0.01 µM (HT-29): 99%
growth at 1 µM (SK-MEL-2): 60%
CC50 (CCRF-CEM; [14]): > 100 µM
TGI (CCRF-CEM; read-out: TGI): > 100 µM
GI50 (CCRF-CEM): 2.29 µM
TGI (CCRF-CEM; read-out: pTGI): > 100 µM
growth at 0.01 µM (MDA-MB-231): 104%

C#C[C@@]1(O)[C@@H](CO)O[C@@H](n2cc(F)c3c(N)ncnc32)[C@@H]1O
growth at 100 µM (SK-OV-3): -30%
growth at 100 µM (HCT-15 [1]): -33%
growth at 0.1 µM (Hs-578T [2]): 106%
growth at 10 µM (SF-268): 7%
CC50 (PC-3; [14]): > 100 µM
TGI (PC-3; read-out: TGI): 3.24 µM
GI50 (PC-3): 0.295 µM
TGI (PC-3; read-out: pTGI (converted)): 3.24 µM
growth at 1 µM (HCT-15 [3]): 18%
growth at 1 µM (NCI-H23): 22%
growth at 1 µM (SF-295): 40%
growth at 0.1 µM (OVCAR-8): 74%
TGI (HCT-15 [4]; read-out: TGI): 3.19 µM
GI50 (HCT-15 [4]): 0.295 µM
CC50 (HCT-15 [4]): > 100 µM
TGI (HCT-15 [4]; read-out: pTGI (converted)): 3.16 µM
growth at 100 µM (ACHN): 2%
growth at 0.1 µM (HCT-15 [5]): 79%
growth at 0.1 µM (OVCAR-4): 90%
growth at 100 µM (U-251): -18%
growth at 1 µM (HOP-62): 33%
growth at 1 µM (BT-549 [6]): 45%
growth at 10 µM (BT-549 [7]): -28%
growth at 0.01 µM (UACC-62): 94%
growth at 10 µM (UACC-257 [8]): -17%
growth at 0.1 µM (UACC-257 [9]): 85%
CC50 (Hs-578T [10]; [14]): > 100 µM
TGI (Hs-578T [10]; read-out: TGI): > 100 µM
GI50 (Hs-578T [10]): 3.98 µM
TGI (Hs-578T [10]; read-out: pTGI): > 100 µM
growth at 1 µM (K562): 16%
growth at 10 µM (HCT-15 [11]): -18%
growth at 100 µM (KM12): -10%
growth at 1 µM (786-0): 43%
growth at 0.1 µM (RXF 393): 102%
growth at 0.1 µM (BT-549 [12]): 107%
growth at 0.1 µM (SNB-19): 79%
growth at 0.01 µM (TK-10): 95%
growth at 0.01 µM (HT-29): 96%
growth at 1 µM (SK-MEL-2): 22%
TGI (CCRF-CEM; read-out: TGI): > 100 µM
GI50 (CCRF-CEM): 0.339 µM
CC50 (CCRF-CEM; [13]): > 100 µM
TGI (CCRF-CEM; read-out: pTGI): > 100 µM
growth at 0.01 µM (MDA-MB-231): 99%
